This is an account of results in US5430157A, “Reduced phenanthrenes” (Eli Lilly and Company, priority 1993, dated 1995).

The target in this experiment is T1, Type II 5α-reductase from human prostate (Homo sapiens, UniProt P31213).
T1 construct: Human prostate tissue from prostate surgeries was obtained immediately after surgery, frozen on dry ice; from tissue; host or cells: human prostate tissue from surgery; homogenate, 100,000 x g pellet resuspended
T1 sequence (P31213 1-254): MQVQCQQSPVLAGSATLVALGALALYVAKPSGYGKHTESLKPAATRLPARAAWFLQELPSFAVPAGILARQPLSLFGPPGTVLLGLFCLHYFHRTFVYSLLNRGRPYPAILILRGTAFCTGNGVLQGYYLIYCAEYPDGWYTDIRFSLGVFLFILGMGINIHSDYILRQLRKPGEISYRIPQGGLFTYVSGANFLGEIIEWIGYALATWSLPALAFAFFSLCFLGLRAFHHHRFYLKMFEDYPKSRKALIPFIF
Nature of the experiment: Human Type II steroid 5α-reductase assay (conversion of [3H]-testosterone to DHT). It is filed as biochemical. Particulars: human prostate enzyme preparation, 50 nM [3H]-testosterone, pH 5.5, 30 min at 25°, compared to control reaction mixtures; read-out: 50% inhibitory concentration. On the procedure: Methodology of Human Type II Steroid 5α-Reductase Assays
Preparation of Type II 5α-Reductase from Human Prostate:
Human prostate tissue from prostate surgeries was obtained immediately after surgery, frozen on dry ice and stored at -80° C. The tissue was frozen with liquid nitrogen and pulverized to powder. The powder was homogenized in ice-cold buffer (20 mM sodium phosphate, pH 6.5) using a Brinkmann Polvtron (Westbury, N.Y.) with a PTA 10-S probe and a setting of 7. The homogenization procedure consisted of four 15 second pulses. Connective tissue was cleared from the probe with forceps between pulses. […]
This enzyme assay is based on the conversion of [^3 H]-testosterone to [^3 H]-5α-dihydrotestosterone (DHT) and other 5α-reduced metabolites. […] Essentially no androsterone was detected. […]
The [^3 H]-testosterone substrate and its metabolites were separated by chromatography using a C-18 reversed phase column (Beckman Ultrasphere 5 μm spherical 80A pore, part no. 235329, 4.6 mm i.d..div.25 mm length) with an isocratic mobile phase (46 water: 46 methanol: 8 tetrahydrofuran by volume). […] A 400 μl aliquot was injected onto the column and radioactivity was determined using a Beckman 171 in-line flow radioisotope detector in conjunction with Rainin Dynamax™ software and a Macintosh computer. […]

`C[C@]12CCC(c3nnn[nH]3)=CC1=CCc1cc(Cl)ccc12` [Example 2, (-)-2-Chloro-4b-methyl-4b,5,6,10-tetrahydrophenanthrene-7-(1-tetrazole)]: the IC50 was determined as 600 nM.

In the case of `C[C@]12CCC(C(=O)O)=CC1=CCc1cc(Cl)ccc12` [Example 1, (-)-2-Chloro-4b-methyl-4b,5,6,10-tetrahydrophenanthrene-7-carboxylic acid], the IC50 was found to be 150 nM.
